Laboratory results published in patent US11000601B2, “Conjugated biological molecules, pharmaceutical compositions and methods” (OBI Pharma, Inc., priority 2016, dated 2021).
Where “and” joins values, the source holds several entries; their conditions need not be identical. Equal values may be shown once. Marks after values point to notes of the source that are not given here. Square brackets hold non-standard residues; d marks the D form. Peptide text beside a SMILES is read from it. * marks the point of attachment. Dolaproine = CO[C@@H]([C@@H]1CCCN1)[C@@H](C)C(=O)O; Dil = CC[C@H](C)[C@H](NC)[C@@H](CC(=O)O)OC; X1 = C[C@@H](N*)[C@@H](O)c1ccccc1; NMeV = CN[C@H](C(=O)O)C(C)C

Tested on: NCI-N87 (ATCC CRL-5822) human gastric carcinoma
Test: Xenograft tumor model of human gastric carcinoma NCI-N87 in female nu/nu mice: tumor volume, T/C, TGI
Assay type: in vivo, mouse
Settings: for Tumor Volume (mm^3), individual animals / Tumor Volume, individual animal / Tumor Volume, individual mouse: 0.191 mg/kg; for Tumor Volume, individual mouse: individual animals
Procedure: In a xenograft tumor model of human gastric carcinoma, viable NCI-N87 (ATCC CRL-5822) cells were subcutaneously (SC) implanted (2.5×10^6 cells/mL with matrigel (1:1) at 0.2 mL/mouse) into the right flank of female nu/nu mice. Tumor implanted mice were divided into seven treatment groups, each group containing eight animals, and one group containing five animals, and dose administrations were initiated one day after cell implantation (denoted as Day 1).
Viable human gastric carcinoma NCI-N87 (ATCC CRL-5822) cell line was purchased and cultured in Eurofins Panlabs Taiwan, Ltd. The cells were cultured in RPMI-1640 medium containing 10% fetal bovine serum (FBS) at 37° C. in 5% CO2 incubator and implanted subcutaneously in the right flank of each mouse.
Female nude (nu/nu) mice aged 5-6 weeks obtained from BioLasco Taiwan (under Charles River Laboratories Licensee) were used. The animals were housed in individually ventilated cages (IVC, 36 Mini Isolator system). The allocation for 3 animals was 27×20×14 in cm. All animals were maintained in a hygienic environment under controlled temperature (20-24° C.) and humidity (30%-70%) with 12-hour light/dark cycle. Free access to standard lab diet [MFG (Oriental Yeast Co., Ltd., Japan)] and autoclaved tap water in bottles were granted. All aspects of this work including housing, experimentation, and animal disposal were performed in general accordance with the “Guide for the Care and Use of Laboratory Animals: Eighth Edition” (National Academies Press, Washington, D.C., 2011) in our AAALAC-accredited laboratory animal facility. In addition, the animal care and use protocol was reviewed and approved by the IACUC at Eurofins Panlabs Taiwan, Ltd.
The tumor volumes, body weights, mortality, and signs of overt toxicity were monitored and recorded twice weekly for 100 days. Tumor growth inhibition was calculated as T/C (treatment/control)×100%. A T/C value≤42% compared to that of the vehicle control group was considered significant anti-tumor activity. Two-way ANOVA followed by Bonferroni test was used to ascertain the statistically significant significance of groups compared to respective vehicle control (*p<0.05).

[1] = Day 1, 0.191 mg/kg × 4 IP once weekly
[2] = Day 4, 0.191 mg/kg × 4 IP once weekly
[3] = Day 8, 0.191 mg/kg × 4 IP once weekly
[4] = Day 11, 0.191 mg/kg × 4 IP once weekly
[5] = Day 15, 0.191 mg/kg × 4 IP once weekly
[6] = Day 18, 0.191 mg/kg × 4 IP once weekly
[7] = Day 22, 0.191 mg/kg × 4 IP once weekly
[8] = Day 25, 0.191 mg/kg × 4 IP once weekly
[9] = Day 29, 0.191 mg/kg × 4 IP once weekly
[10] = Day 32, 0.191 mg/kg × 4 IP once weekly
[11] = Day 36, 0.191 mg/kg × 4 IP once weekly
[12] = Day 39, 0.191 mg/kg × 4 IP once weekly
[13] = Day 43, 0.191 mg/kg × 4 IP once weekly
[14] = Day 46, 0.191 mg/kg × 4 IP once weekly
[15] = Day 50, 0.191 mg/kg × 4 IP once weekly
[16] = Day 53, 0.191 mg/kg × 4 IP once weekly

CC[C@H](C)[C@@H]([C@@H](CC(=O)N1CCC[C@H]1[C@H](OC)[C@@H](C)C(=O)N[C@H](C)[C@@H](O)c1ccccc1)OC)N(C)C(=O)[C@@H](NC(=O)[C@@H](NC)C(C)C)C(C)C [MMAE, monomethyl auristatin E] (H-[NMeV]V[Dil][Dolaproine]-X1)
maximum percent TGI (0.191 mg/kg IP once weekly for four weeks, Day 53): 53% | anti-tumor activity (in words) (0.191 mg/kg IP once weekly for four weeks, over the course of the study): moderate anti-tumor activity | Tumor Volume (mm^3), Mean [1]: 96 mm^3 | Tumor Volume (mm^3), individual animals [1]: 61 mm^3 and 89 mm^3 and 83 mm^3 and 88 mm^3 (2×) and 125 mm^3 and 110 mm^3 and 121 mm^3 | % T/C [2]: 88% | % TGI [2]: 12% | Tumor Volume (mm^3), Mean [2]: 109 mm^3 | Tumor Volume (mm^3), individual animals [2]: 106 mm^3 and 102 mm^3 and 115 mm^3 (3×) and 104 mm^3 and 109 mm^3 | % T/C [3]: 83% | % TGI [3]: 17% | Tumor Volume (mm^3), Mean [3]: 122 mm^3 | Tumor Volume (mm^3), individual animals [3]: 117 mm^3 and 142 mm^3 and 127 mm^3 and 115 mm^3 and 110 mm^3 and 125 mm^3 and 119 mm^3 | % T/C [4]: 59% | % TGI [4]: 41% | Tumor Volume (mm^3), Mean [4]: 165 mm^3 | Tumor Volume (mm^3), individual animals [4]: 162 mm^3 and 158 mm^3 and 137 mm^3 and 169 mm^3 and 174 mm^3 and 187 mm^3 and 166 mm^3 | % T/C [5]: 60% | % TGI [5]: 40% | Tumor Volume (mm^3), Mean [5]: 189 mm^3 | Tumor Volume (mm^3), individual animals [5]: 153 mm^3 and 189 mm^3 (2×) and 178 mm^3 and 231 mm^3 and 175 mm^3 and 208 mm^3 | % T/C [6]: 57% | % TGI [6]: 43% | Tumor Volume (mm^3), Mean [6]: 218 mm^3 | Tumor Volume (mm^3), individual animals [6]: 152 mm^3 and 213 mm^3 and 234 mm^3 and 255 mm^3 and 231 mm^3 and 228 mm^3 and 211 mm^3 | % T/C [7]: 54% | % TGI [7]: 46% | Tumor Volume (mm^3), Mean [7]: 252 mm^3 | Tumor Volume (mm^3), individual animals [7]: 144 mm^3 and 201 mm^3 and 246 mm^3 and 303 mm^3 and 252 mm^3 and 322 mm^3 and 296 mm^3 | % T/C [8]: 53% | % TGI [8]: 47% | Tumor Volume (mm^3), Mean [8]: 277 mm^3 | Tumor Volume (mm^3), individual animals [8]: 146 mm^3 and 216 mm^3 and 259 mm^3 and 356 mm^3 and 315 mm^3 and 353 mm^3 and 296 mm^3 | % T/C [9]: 59% | % TGI [9]: 41% | Tumor Volume, Mean [9]: 371* mm^3 | Tumor Volume, individual animal [9]: 162 mm^3 and 277 mm^3 and 399 mm^3 and 406 mm^3 and 439 mm^3 and died and 525 mm^3 and 387 mm^3 | % T/C [10]: 54% | % TGI [10]: 46% | Tumor Volume, Mean [10]: 389* mm^3 | Tumor Volume, individual animal [10]: 160 mm^3 and 318 mm^3 and 397 mm^3 and 385 mm^3 and 446 mm^3 and died and 584 mm^3 and 432 mm^3 | % T/C [11]: 50% | % TGI [11]: 50% | Tumor Volume, Mean [11]: 406* mm^3 | Tumor Volume, individual animal [11]: 94 mm^3 and 345 mm^3 and 390 mm^3 and 389 mm^3 and 506 mm^3 and died and 658 mm^3 and 459 mm^3 | % T/C [12]: 47% | % TGI [12]: 53% | Tumor Volume, Mean [12]: 431* mm^3 | Tumor Volume, individual animal [12]: 94 mm^3 and 385 mm^3 and 407 mm^3 and 442 mm^3 and 530 mm^3 and died and 671 mm^3 and 487 mm^3 | % T/C [13]: 48% | % TGI [13]: 52% | Tumor Volume, Mean [13]: 477* mm^3 | Tumor Volume, individual animal [13]: 97 mm^3 and 414 mm^3 and 429 mm^3 and 489 mm^3 and 581 mm^3 and died and 780 mm^3 and 549 mm^3 | % T/C [14]: 51% | % TGI [14]: 49% | Tumor Volume, Mean [14]: 555* mm^3 | Tumor Volume, individual animal [14]: 91 mm^3 and 606 mm^3 and 535 mm^3 and 495 mm^3 and 719 mm^3 and died and 878 mm^3 and 561 mm^3 | % T/C [15]: 49% | % TGI [15]: 51% | Tumor Volume, Mean [15]: 589* mm^3 | Tumor Volume, individual animal [15]: 89 mm^3 and 623 mm^3 and 569 mm^3 and 550 mm^3 and 766 mm^3 and died and 936 mm^3 and 590 mm^3 | % T/C [16]: 47% | % TGI [16]: 53% | Tumor Volume, Mean [16]: 639* mm^3 | Tumor Volume, individual animal [16]: 88 mm^3 and 682 mm^3 and 590 mm^3 and 581 mm^3 and 816 mm^3 and died and 1094 mm^3 and 620 mm^3 | Tumor Volume, Mean (Day 57, 0.191 mg/kg × 4 IP (Once weekly), group mean): 676 mm^3 | Tumor Volume, individual mouse (Day 57, 0.191 mg/kg × 4 IP (Once weekly)): 85 mm^3 and 694 mm^3 and 663 mm^3 and 627 mm^3 and 870 mm^3 and 1141 mm^3 and 650 mm^3 | Tumor Volume, Mean (Day 60, 0.191 mg/kg × 4 IP (Once weekly), group mean): 720 mm^3 | Tumor Volume, individual mouse (Day 60, 0.191 mg/kg × 4 IP (Once weekly)): 83 mm^3 and 745 mm^3 and 783 mm^3 and 664 mm^3 and 854 mm^3 and 1234 mm^3 and 676 mm^3 | Tumor Volume, Mean (Day 64, 0.191 mg/kg × 4 IP (Once weekly), group mean): 747 mm^3 | Tumor Volume, individual mouse (Day 64, 0.191 mg/kg × 4 IP (Once weekly)): 82 mm^3 and 765 mm^3 and 788 mm^3 and 702 mm^3 and 920 mm^3 and 1272 mm^3 and 703 mm^3 | Tumor Volume, Mean (Day 67, 0.191 mg/kg × 4 IP (Once weekly), group mean): 818 mm^3 | Tumor Volume, individual mouse (Day 67, 0.191 mg/kg × 4 IP (Once weekly)): 79 mm^3 and 883 mm^3 and 827 mm^3 and 726 mm^3 and 1070 mm^3 and 1300 mm^3 and 840 mm^3 | Tumor Volume, Mean (Day 70, 0.191 mg/kg × 4 IP (Once weekly), group mean): 846 mm^3 | Tumor Volume, individual mouse (Day 70, 0.191 mg/kg × 4 IP (Once weekly)): 76 mm^3 and 943 mm^3 and 870 mm^3 and 726 mm^3 and 1090 mm^3 and 1358 mm^3 and 859 mm^3 | Tumor Volume, Mean (Day 74, 0.191 mg/kg × 4 IP (Once weekly), group mean): 901 mm^3 | Tumor Volume, individual mouse (Day 74, 0.191 mg/kg × 4 IP (Once weekly)): 74 mm^3 and 1012 mm^3 and 909 mm^3 and 856 mm^3 and 1117 mm^3 and 1422 mm^3 and 916 mm^3 | Tumor Volume, Mean (Day 78, 0.191 mg/kg × 4 IP (Once weekly), group mean): 931 mm^3 | Tumor Volume, individual mouse (Day 78, 0.191 mg/kg × 4 IP (Once weekly)): 74 mm^3 and 1042 mm^3 and 955 mm^3 and 890 mm^3 and 1197 mm^3 and 1431 mm^3 and 928 mm^3 | Tumor Volume, Mean (Day 81, 0.191 mg/kg × 4 IP (Once weekly), group mean): 951 mm^3 | Tumor Volume, individual mouse (Day 81, 0.191 mg/kg × 4 IP (Once weekly)): 77 mm^3 and 1064 mm^3 and 961 mm^3 and 903 mm^3 and 1197 mm^3 and 1517 mm^3 and 935 mm^3 | Tumor Volume, Mean (Day 85, 0.191 mg/kg × 4 IP (Once weekly), group mean): 1002 mm^3 | Tumor Volume, individual mouse (Day 85, 0.191 mg/kg × 4 IP (Once weekly)): 77 mm^3 and 1097 mm^3 and 1033 mm^3 and 933 mm^3 and 1331 mm^3 and 1558 mm^3 and 988 mm^3 | Tumor Volume, Mean (Day 88, 0.191 mg/kg × 4 IP (Once weekly), group mean): 1032 mm^3 | Tumor Volume, individual mouse (Day 88, 0.191 mg/kg × 4 IP (Once weekly)): 74 mm^3 and 1104 mm^3 and 1117 mm^3 and 933 mm^3 and 1346 mm^3 and 1626 mm^3 and 1023 mm^3 | Tumor Volume, Mean (Day 91, 0.191 mg/kg × 4 IP (Once weekly), group mean): 1037 mm^3 | Tumor Volume, individual mouse (Day 91, 0.191 mg/kg × 4 IP (Once weekly)): 72 mm^3 and 1122 mm^3 and 1130 mm^3 and 933 mm^3 and 1346 mm^3 and 1636 mm^3 and 1023 mm^3 | Tumor Volume, Mean (Day 95, 0.191 mg/kg × 4 IP (Once weekly), group mean): 1060 mm^3 | Tumor Volume, individual mouse (Day 95, 0.191 mg/kg × 4 IP (Once weekly)): 68 mm^3 and 1192 mm^3 and 1184 mm^3 and 947 mm^3 and 1354 mm^3 and 1646 mm^3 and 1029 mm^3 | Tumor Volume, Mean (Day 98, 0.191 mg/kg × 4 IP (Once weekly), group mean): 1101 mm^3 | Tumor Volume, individual mouse (Day 98, 0.191 mg/kg × 4 IP (Once weekly)): 68 mm^3 and 1215 mm^3 and 1265 mm^3 and 1061 mm^3 and 1398 mm^3 and 1656 mm^3 and 1043 mm^3 | Tumor Volume, Mean (Day 100, 0.191 mg/kg × 4 IP (Once weekly), group mean): 1106 mm^3 | Tumor Volume, individual mouse (Day 100, 0.191 mg/kg × 4 IP (Once weekly)): 62 mm^3 and 1254 mm^3 and 1273 mm^3 and 1076 mm^3 and 1444 mm^3 and 1590 mm^3 and 1043 mm^3
